Experimental data published in US20100062997A1, “USE OF IDRAPARINUX FOR EXTENDED PROPHYLAXIS OF THROMBOEMBOLISM” (SANOFI-AVENTIS, priority 2008, published 2010).

What was measured:
[1] = test system: patients with confirmed, symptomatic DVT or PE treated for 6 months with a VKA or idraparinux; assay: Same study, principal safety outcome: major bleeding; type: in vivo
Procedure: (§1) A double-blind, placebo-controlled study evaluated patients who had completed 6 months of initial treatment for deep venous thrombosis (hereafter “DVT”) or pulmonary embolism (hereafter “PE”) and who were then randomly assigned to receive an additional 6 months of prophylaxis with idraparinux. The efficacy of this method of thromboprophylaxis was evaluated in these patients.
(§2) Patients received a once-weekly subcutaneous dose of 2.5 mg of idraparinux or placebo with an identical appearance for 6 months (26 injections). In patients who had received idraparinux before randomization, the first dose of idraparinux or placebo was given 6 to 8 days after the last injection of the drug. In patients who had received a VKA before randomization, the first dose was given when the international normalized ratio (INR) was 3.0 or less. For patients with a creatinine clearance of less than 30 ml/min., the weekly idraparinux dose was 1.5 mg, with a first dose of 2.5 mg in patients who had received a VKA before randomization.
The principal safety outcome was major bleeding. […]
Analysis of the primary safety outcome, the incidence of major bleeding at 6 months, was performed with the use of the Mantel-Haenszel test, stratified according to the previous treatment. The effect of initial, prerandomization treatment on efficacy and safety was also analyzed. […]

[2] = test system: patients with confirmed, symptomatic DVT or PE treated for 6 months with a VKA or idraparinux; assay: Double-blind, placebo-controlled study of 6 months extended thromboprophylaxis: symptomatic recurrent VTE; type: in vivo
Procedure: as §1
Eligible patients were those aged above or equal to 18 years, with confirmed, symptomatic DVT or PE and who had been treated for 6 months with a VKA (acenocoumarol or warfarin), either in previous van Gogh studies (see The van Gogh Investigators, N. Engl. J. Med., 2007, 357, 1094-104) or outside these studies, or with idraparinux (in van Gogh studies).
The diagnostic criteria for DVT were a calf trifurcation or a more proximal vein that were noncompressible on ultrasonography or an intraluminal filling defect on venography. For PE, the diagnostic criteria were an intraluminal filling defect in subsegmental or more proximal pulmonary arteries on spiral computed tomography (CT) or conventional pulmonary angiography, a high-probability finding on a ventilation-perfusion lung scan, or a nondiagnostic finding on a lung scan with objectively documented DVT (H. R. Büller et al., Ann. Intern. Med., 2004, 140, 867-73; The Matisse Investigators, N. Engl. J. Med., 2003, 349, 1695-702).
Patients were ineligible if they met one or more of the following criteria: an indication to continue anticoagulant therapy for the index DVT or PE beyond 6 months, other indications for prophylaxis with a VKA, pregnancy or breast-feeding, a creatinine clearance of less than 10 ml per minute, severe hepatic disease, bacterial endocarditis, active bleeding or a high risk of bleeding, uncontrolled hypertension (systolic blood pressure above 180 mm Hg or diastolic blood pressure above 110 mm Hg), or a life expectancy of less than 3 months.
Patients were randomized, with stratification according to study center and to the anticoagulant treatment received in the 6 months before randomization (idraparinux within the van Gogh studies or VKA within or outside the van Gogh studies). Randomization was to be performed not more than 1 hour before the administration of the first dose of the study drug.
as §2
All patients were contacted after 1 week and at 3 and 6 months. […] At each contact, symptoms and signs of recurrent VTE were investigated.
All suspected outcome events were reviewed and classified by a central adjudication committee, whose members were unaware of study-group assignment.
The primary efficacy outcome was the incidence of symptomatic recurrence of VTE, defined as objectively documented recurrent PE, DVT or death attributed to PE. A diagnosis of recurrent VTE was accepted in the absence of an adequate objective test result if the investigator had treated the patient with therapeutic doses of heparin for more than 2 days or with a vena cava filter, thrombectomy or thrombolysis, or if recurrent VTE could not be ruled out. […]

[3] = idraparinux group, month 6 after randomization, counted in most severe category

## CO[C@H]1O[C@H](COS(=O)(=O)O)[C@@H](O[C@@H]2O[C@@H](C(=O)O)[C@@H](O[C@H]3O[C@H](COS(=O)(=O)O)[C@@H](O[C@@H]4O[C@H](C(=O)O)[C@@H](O[C@H]5O[C@H](COS(=O)(=O)O)[C@@H](OC)[C@H](OC)[C@H]5OC)[C@H](OC)[C@H]4OC)[C@H](OS(=O)(=O)O)[C@H]3OS(=O)(=O)O)[C@H](OC)[C@H]2OC)[C@H](OS(=O)(=O)O)[C@H]1OS(=O)(=O)O [Idraparinux, idraparinux]
[1]; idraparinux group, 6 months of treatment, placebo 0%, P<0.001
  major hemorrhage: 1.9%
[1]; placebo group, patients who first received idraparinux, 6 months
  major bleedings after discontinuation: without major bleedings
[2]; idraparinux group, 6 of 594 patients, during the 6 months of randomly assigned treatment
  symptomatic, objectively confirmed VTE (frequency of recurrent thromboembolism): 1.0%
[2]; idraparinux group, 7 patients, further 6-month observation period after end of the additional 6 months of thromboprophylaxis, P=0.21 vs placebo
  recurrent VTE: 1.2%
[2]; idraparinux group, 1 year after randomization, P=0.002 vs placebo
  cumulative incidence of recurrent VTE (Kaplan-Meier): 1.7%
[2]; [3]
  Type of recurrent event: DVT only: 3 number of patients
  Type of recurrent event: PE fatal: 2 number of patients
  Type of recurrent event: PE non fatal: 1 number of patients
[2]; idraparinux vs placebo, 6 months, 95% CI 33.5 to 88.8, P=0.002
  reduction in the relative risk of recurrent VTE: 72.7%
[2]; idraparinux vs placebo, month 6 after randomization, all patients, adjusted according to treatment history, P 0.002
  Recurrent VTE, Odds Ratio (95% CI): 0.27 (0.11-0.66)
[2]; idraparinux vs placebo, treatment before randomization: VKA outside study, month 6, P 0.004
  Recurrent VTE, Odds Ratio (95% CI): 0.09 (0.01-0.69)
[2]; idraparinux vs placebo, treatment before randomization: VKA within study, month 6, P 0.02
  Recurrent VTE, Odds Ratio (95% CI): 0.20 (0.04-0.92)
[2]; idraparinux vs placebo, treatment received before randomization: VKA, month 6, P <0.001
  Recurrent VTE, Odds Ratio (95% CI): 0.14 (0.04-0.48)
[2]; idraparinux vs placebo, treatment received before randomization: idraparinux, month 6, P 0.68
  Recurrent VTE, Odds Ratio (95% CI): 1.58 (0.26-9.55)
[2]; placebo group, entire year after randomization, 268 patients who had received idraparinux in the 6 months before randomization
  cumulative incidence of recurrent thromboembolism by treatment received before randomization (FIG. 1): lowest
[2]; placebo group, substance = treatment received for 6 months before randomization
  frequency of recurrence (6-month recurrence rate) after discontinuation: less than 1%
